Patent US5352451A, “Biological insect control agents and methods of use” (priority 1991, dated 1994)

Target: T1, EGT (Autographa californica nuclear polyhedrosis virus, UniProt P18569)
T1 construct: extracellular medium from wt-AcMNPV infected cells containing significant egt activity; endogenous in cells; host or cells: Spodoptera frugiperda IPLB-SF-21 (SF) cells infected with wild-type AcMNPV; extracellular medium used unpurified; EGT made from the virus's own gene
Type: biochemical
Conditions: substrate 1 mM; extracellular medium from wt-AcMNPV infected cells; 0.05 μCi UDP-[U-14C]glucose
Method: Experiments are then performed to more thoroughly investigate the substrate specificity of EGT. In these experiments various substrates (1 mM) are incubated in the presence of extracellular medium from wt-AcMNPV infected cells containing significant egt activity. As controls to ensure that any conjugation observed is due to EGT, each substrate is also incubated with media from uninfected and vEGTZ-infected cells, which cannot produce EGT. 0.05 μCi UDP-[U-^14 C]glucose are added to each reaction. Any compounds which function as substrates for EGT will be conjugated with glucose; they can be detected because the glucose is radioactively labeled.
Substrates are incubated in the presence of medium derived from
appropriately infected cells and 0.05 μCi UDP[U-^14 C]glucose.
Amounts of glucose transferred are calculated after scintillation countin
of the appropriate regions of the chromatography plates.
The only substrates identified are ecdysone, 20-hydroxyecdysone and makisterone A, all of which are ecdysteriods. No conjugation is observed using medium from mock- or vEGTZ-infected cells, confirming that the activity observed is due to expression of egt.

T1 sequence (P18569 19-506): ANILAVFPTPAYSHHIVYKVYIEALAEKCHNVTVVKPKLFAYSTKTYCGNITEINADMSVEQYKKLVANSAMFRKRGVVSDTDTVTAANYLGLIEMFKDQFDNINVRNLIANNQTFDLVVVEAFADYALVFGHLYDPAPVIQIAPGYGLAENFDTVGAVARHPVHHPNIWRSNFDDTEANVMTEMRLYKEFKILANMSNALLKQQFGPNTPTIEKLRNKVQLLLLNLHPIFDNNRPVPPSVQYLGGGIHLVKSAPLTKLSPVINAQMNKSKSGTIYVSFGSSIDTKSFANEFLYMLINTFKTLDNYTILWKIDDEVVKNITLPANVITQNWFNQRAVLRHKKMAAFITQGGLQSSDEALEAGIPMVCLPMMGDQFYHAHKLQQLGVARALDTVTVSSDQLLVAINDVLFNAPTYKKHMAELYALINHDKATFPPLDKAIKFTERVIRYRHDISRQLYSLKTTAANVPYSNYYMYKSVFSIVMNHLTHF

In order of falling “wild type (pmol Glucose transferred)” value:
1. C[C@H]([C@H](O)CCC(C)(C)O)[C@H]1CC[C@@]2(O)C3=CC(=O)[C@@H]4C[C@@H](O)[C@@H](O)C[C@]4(C)[C@H]3CC[C@]12C [Ecdysone]  155.7 pmol
2. CC(CC(O)C(C)(O)C1CCC2(O)C3=CC(=O)C4CC(O)C(O)CC4(C)C3CCC12C)C(C)(C)O (stereo not drawn) [Makisterone A]  89.6 pmol
3. CC(C)(O)CCC(O)C(C)(O)C1CCC2(O)C3=CC(=O)C4CC(O)C(O)CC4(C)C3CCC12C (stereo not drawn) [20-Hydroxyecdysone]  87.8 pmol
